Source: patent publication US11612595B2, “Compositions and methods for treating rheumatoid arthritis” (Generos Biopharma Ltd., priority 2017, dated 2023)

Key:
[1] = weight changes in mouse CIA model; assay type: in vivo, DBA/1J mice
Description: FIGS. 7A and 78 show graphs depicting weight changes in five groups of mouse CIA models under different treatment schemes. DBA/1 mice were randomly divided into 9 groups with 10 mice each group. On day 0 and 21, all of them except blank control group were inoculated with 50 ul collagen plus CFA mixture subcutaneously at back flank near tail. The weights of all 90 mice were monitored 3 times a week throughout the experiment.
(§1) Eight of nine groups (10 mice in each group) of male DBA/1J mice (age 9-10 weeks. H-2q haplotype) were subject to CIA model induction and then to different treatment schemes. The group of mice without CIA model induction was used as a control (Blank). Specifically, Bovine type II collagen (Chondrex) was mixed with Freund's complete adjuvant (CFA) (Sigma) and injected s.c. to flank near tail of the mice twice (the second injection was made 21 days after the first injection) to create CIA model mice. The eight groups of CIA model mice were separated into four prophylactic groups and four therapeutic groups, with each group subjected to different treatments.
(§2) In the four prophylactic groups, daily treatments started from the date when the first CIA induction injection was made. The first of the four prophylactic groups of CIA model mice were treated with 30% PEG300 (containing 4% DMSO-all 30% PEG300 in the application contains 4% DMSO) solution via intraperitoneal injection as controls (Model). The second of the four prophylactic groups of CIA model mice were treated with nicotinohydrazide (Calbiochem) 10 mg/kg in 30% PEG300 solution via intraperitoneal injection (573108 10 mg/kg). The third of the four prophylactic groups of CIA model mice were treated with nicotinohydrazide (Calbiochem) 5 mg/kg in 30% PEG300 solution via intraperitoneal injection (573108 5 mg/kg). The last of the four prophylactic groups of CIA model mice were treated with Tofacitinib (Selleckchem) 5 mg/kg in 30% PEG300 solution via intraperitoneal injection (Tofacitinib 5 mg/kg).
(§3) In the four therapeutic groups, daily treatments started from the date when the second CIA induction injection was made. The first of the four therapeutic groups of CIA model mice were treated with 30% PEG300 solution via intraperitoneal injection as controls (Model). The second of the four therapeutic groups of CIA model mice were treated with nicotinohydrazide (Calbiochem) 10 mg/kg in 30% PEG300 solution via intraperitoncal injection (573108 10 mg/kg). The third of the four therapeutic groups of CIA model mice were treated with nicotinohydrazide (Calbiochem) 5 mg/kg in 30% PEG300 solution via intraperitoneal injection (573108 5 mg/kg). The last of the four therapeutic groups of CIA model mice were treated with Tofacitinib (Selleckchem) 5 mg/kg in 30% PEG300 solution via intraperitoncal injection (Tofacitinib 5 mg/kg).
(§4) The inventors collected data of the weight, and clinical scores of the mice every 2-3 days and performed statistic analysis. The method used in the statistic analysis was Student's t test, unpaired, two-tailed analysis.

[2] = tested on: collagen-induced arthritis (CIA) model mice; assay: collagen-induced arthritis (CIA) model mice, clinical scores; assay type: in vivo, DBA/1J mice; parameters: key to Pairwise analysis of the difference between groups (clinical scores), vs Model / Pairwise analysis of the difference between groups (clinical scores), S5i 5 mpk vs S5i 10 mpk: p values from pairwise comparisons
Description: FIGS. 8A and 8B show graphs depicting clinical score changes in four groups of CIA mouse models under different treatment schemes. In FIG. 8A, different chemicals (DMSO as control for Model group, blank group is left untreated) were daily administered intraperitoneally at the indicated doses from the first injection of the collagen agent. In FIG. 8B, different chemicals were daily administered intraperitoneally from the second injection of collagen agent at the indicated doses. Clinical scores were given double-blindly according to the scoring scheme every 2 days.
FIGS. 9A and 9B show graphs of clinical scores at day 44 for each group, the overall difference analyzed by ANOVA is significant p<0.0001, while the p value between Model and each individual group is labeled above the bar * p<0.05, ** p<0.01.
as §1, §2, §3, §4
The clinical scores were derived according to the scheme in Table 2.

[3] = prophylactic groups, 5 mg/kg i.p. daily
[4] = prophylactic groups, 10 mg/kg i.p. daily
[5] = therapeutic groups, 5 mg/kg i.p. daily
[6] = therapeutic groups, 10 mg/kg i.p. daily

trend of weight changes, p vs Model [1, 3]: 0.4638
trend of weight changes, p vs Tofacitinib 5 mg/kg [1, 3]: 0.0136
trend of weight changes, p vs Model [1, 4]: 0.32
trend of weight changes, p vs Tofacitinib 5 mg/kg [1, 4]: 0.0207
trend of weight changes, p vs Model [1, 5]: < 0.0001
trend of weight changes, p vs Tofacitinib 5 mg/kg [1, 5]: 0.0006
trend of weight changes, p vs Model [1, 6]: < 0.0001
Structure (SMILES): O=C(N/N=C/c1coc2ccccc2c1=O)c1cccnc1 [nicotinohydrazide, N′-((4-Oxo-4H-chromen-3-yl)methylene)nicotinohydrazide]
clinical scores compared to Model [2, 3]: reduced clinical scores
clinical scores compared to Model [2, 4]: reduced clinical scores
Pairwise analysis of the difference between groups (clinical scores), vs Model ([2]; prophylactic groups, 5 mpk, Day 28): 0.1019
Pairwise analysis of the difference between groups (clinical scores), vs Model ([2]; prophylactic groups, 5 mpk, Day 30): 0.0410
Pairwise analysis of the difference between groups (clinical scores), vs Model ([2]; prophylactic groups, 5 mpk, Day 32): 0.0740
Pairwise analysis of the difference between groups (clinical scores), vs Model ([2]; prophylactic groups, 5 mpk, Day 35): 0.0615
Pairwise analysis of the difference between groups (clinical scores), vs Model ([2]; prophylactic groups, 5 mpk, Day 37): 0.1101
Pairwise analysis of the difference between groups (clinical scores), vs Model ([2]; prophylactic groups, 5 mpk, Day 39): 0.0010
Pairwise analysis of the difference between groups (clinical scores), vs Model ([2]; prophylactic groups, 5 mpk, Day 42): 0.0185
Pairwise analysis of the difference between groups (clinical scores), vs Model ([2]; prophylactic groups, 5 mpk, Day 44): 0.2729
Pairwise analysis of the difference between groups (clinical scores), vs Model ([2]; prophylactic groups, 10 mpk, Day 28): 0.1491
Pairwise analysis of the difference between groups (clinical scores), vs Model ([2]; prophylactic groups, 10 mpk, Day 30): 0.1452
Pairwise analysis of the difference between groups (clinical scores), vs Model ([2]; prophylactic groups, 10 mpk, Day 32): 0.1256
Pairwise analysis of the difference between groups (clinical scores), vs Model ([2]; prophylactic groups, 10 mpk, Day 35): 0.0354
Pairwise analysis of the difference between groups (clinical scores), vs Model ([2]; prophylactic groups, 10 mpk, Day 37): 0.0614
Pairwise analysis of the difference between groups (clinical scores), vs Model ([2]; prophylactic groups, 10 mpk, Day 39): 0.0008
Pairwise analysis of the difference between groups (clinical scores), vs Model ([2]; prophylactic groups, 10 mpk, Day 42): 0.0033
Pairwise analysis of the difference between groups (clinical scores), vs Model ([2]; prophylactic groups, 10 mpk, Day 44): 0.0128
Pairwise analysis of the difference between groups (clinical scores), S5i 5 mpk vs S5i 10 mpk ([2]; prophylactic groups, Day 28): 0.7387
Pairwise analysis of the difference between groups (clinical scores), S5i 5 mpk vs S5i 10 mpk ([2]; prophylactic groups, Day 30): 0.5943
Pairwise analysis of the difference between groups (clinical scores), S5i 5 mpk vs S5i 10 mpk ([2]; prophylactic groups, Day 32): 0.8722
Pairwise analysis of the difference between groups (clinical scores), S5i 5 mpk vs S5i 10 mpk ([2]; prophylactic groups, Day 35): 0.7717
Pairwise analysis of the difference between groups (clinical scores), S5i 5 mpk vs S5i 10 mpk ([2]; prophylactic groups, Day 37): 0.8686
Pairwise analysis of the difference between groups (clinical scores), S5i 5 mpk vs S5i 10 mpk ([2]; prophylactic groups, Day 39): 0.9741
Pairwise analysis of the difference between groups (clinical scores), S5i 5 mpk vs S5i 10 mpk ([2]; prophylactic groups, Day 42): 0.1588
Pairwise analysis of the difference between groups (clinical scores), S5i 5 mpk vs S5i 10 mpk ([2]; prophylactic groups, Day 44): 0.0717
clinical scores compared to Model [2, 5]: reduced clinical scores
clinical scores compared to Model [2, 6]: reduced clinical scores
Pairwise analysis of the difference between groups (clinical scores), vs Model ([2]; therapeutic groups, 5 mpk, Day 28): 0.0117
Pairwise analysis of the difference between groups (clinical scores), vs Model ([2]; therapeutic groups, 5 mpk, Day 30): 0.0295
Pairwise analysis of the difference between groups (clinical scores), vs Model ([2]; therapeutic groups, 5 mpk, Day 32): 0.0032
Pairwise analysis of the difference between groups (clinical scores), vs Model ([2]; therapeutic groups, 5 mpk, Day 35): 0.0025
Pairwise analysis of the difference between groups (clinical scores), vs Model ([2]; therapeutic groups, 5 mpk, Day 37): 0.0024
Pairwise analysis of the difference between groups (clinical scores), vs Model ([2]; therapeutic groups, 5 mpk, Day 39): 0.0019
Pairwise analysis of the difference between groups (clinical scores), vs Model ([2]; therapeutic groups, 5 mpk, Day 42): 0.0044
Pairwise analysis of the difference between groups (clinical scores), vs Model ([2]; therapeutic groups, 5 mpk, Day 44): 0.0012
Pairwise analysis of the difference between groups (clinical scores), vs Model ([2]; therapeutic groups, 10 mpk, Day 28): 0.0399
Pairwise analysis of the difference between groups (clinical scores), vs Model ([2]; therapeutic groups, 10 mpk, Day 30): 0.0190
Pairwise analysis of the difference between groups (clinical scores), vs Model ([2]; therapeutic groups, 10 mpk, Day 32): 0.0080
Pairwise analysis of the difference between groups (clinical scores), vs Model ([2]; therapeutic groups, 10 mpk, Day 35): 0.1008
Pairwise analysis of the difference between groups (clinical scores), vs Model ([2]; therapeutic groups, 10 mpk, Day 37): 0.1336
Pairwise analysis of the difference between groups (clinical scores), vs Model ([2]; therapeutic groups, 10 mpk, Day 39): 0.1189
Pairwise analysis of the difference between groups (clinical scores), vs Model ([2]; therapeutic groups, 10 mpk, Day 42): 0.0820
Pairwise analysis of the difference between groups (clinical scores), vs Model ([2]; therapeutic groups, 10 mpk, Day 44): 0.0397
Pairwise analysis of the difference between groups (clinical scores), S5i 5 mpk vs S5i 10 mpk ([2]; therapeutic groups, Day 28): 0.4163
Pairwise analysis of the difference between groups (clinical scores), S5i 5 mpk vs S5i 10 mpk ([2]; therapeutic groups, Day 30): 0.8721
Pairwise analysis of the difference between groups (clinical scores), S5i 5 mpk vs S5i 10 mpk ([2]; therapeutic groups, Day 32): 0.4838
Pairwise analysis of the difference between groups (clinical scores), S5i 5 mpk vs S5i 10 mpk ([2]; therapeutic groups, Day 35): 0.0249
Pairwise analysis of the difference between groups (clinical scores), S5i 5 mpk vs S5i 10 mpk ([2]; therapeutic groups, Day 37): 0.0183
Pairwise analysis of the difference between groups (clinical scores), S5i 5 mpk vs S5i 10 mpk ([2]; therapeutic groups, Day 39): 0.0183
Pairwise analysis of the difference between groups (clinical scores), S5i 5 mpk vs S5i 10 mpk ([2]; therapeutic groups, Day 42): 0.0777
Pairwise analysis of the difference between groups (clinical scores), S5i 5 mpk vs S5i 10 mpk ([2]; therapeutic groups, Day 44): 0.0842
